These are literature values, as cited in patent US20130252843A1, “METHOD OF MAKING AND USING FLUORESCENT-TAGGED NANOPARTICLES AND MICROARRAYS” (THE STATE OF OREGON ACTING BY AND THROUGH THE STATE BOARD …, priority 2010, published 2013).

Like-named read-outs stand apart in the source and are kept apart here.

The target in data set [1] is CVN-Q, Cyanovirin-N Q^50C (Q50C) mutant (Nostoc ellipsosporum, UniProt P81180, Q50C). The following applies: cited from earlier work.
In data set [2] the target is Con A, Concanavalin A (Canavalia ensiformis, UniProt P02866). The following applies: reported solution association constants, cited from earlier work.
Data set [3] concerns the target CVN (Cyanovirin-N mutants). The following applies: cited from earlier work.
Data set [4] addresses CVN-M, Cyanovirin-N Mut^DB (CV-N^MutDB) mutant (Nostoc ellipsosporum, UniProt P81180). The following applies: reported association constants, cited from earlier work.
Data set [5] deals with DBA, Dolichos Biflorus Agglutinin. The following applies: cited from earlier work.
Data set [6] has as its target RCA, Ricinus Communis Agglutinin I. The following applies: cited from earlier work.
The target in data set [7] is BS-I, Bandeiraea simplicifolia lectin. The following applies: cited from earlier work.
The target in data set [8] is T1, PNA, Peanut Agglutinin (Arachis hypogaea, UniProt P02872).
T1 construct: purchased Sigma-Aldrich
The following applies: cited from earlier work.

On to `OC[C@H]1O[C@H](O[C@@H]2[C@@H](O[C@@H]3C(O)O[C@H](CO)[C@@H](O)[C@@H]3O)O[C@H](CO)[C@@H](O)[C@@H]2O)[C@@H](O)[C@@H](O)[C@@H]1O` (stereo partly drawn) [2α,2α-Man3, α-1,2-α-1,2-mannotriose], for which the Ka was 2.94 × 10^5 (Domain A); M^−1 in data set [1] (Domain A); 2.33 × 10^4 (Domain B) M^−1 in data set [1] (Domain B); 379000 M⁻¹ in data set [2]; 379000 M⁻¹ in data set [2] (listed as 2α, 2α-Man3); 10^5-10^6 M^−1 in data set [2] (listed as Man3); 10^5-10^6 M^−1 in data set [3]. Besides, the Ka is 294000 M⁻¹ in data set [4] and 294000 M⁻¹ in data set [4] (listed as 2α, 2α-Man3).
As to `CC(=O)N[C@H]1C(O)O[C@H](CO)[C@H](O)[C@@H]1O` (stereo partly drawn) [GalNAc, N-acetylgalactosamine], the Ka in data set [5] was ~10^3 M^−1; in data set [6], 48400 M⁻¹; in data set [7], 187000 M⁻¹; in data set [8] it was 2430 M⁻¹.
